# Measurements: patent publication US7442791B2, “Aminoalkylamide substituted cyclohexyl derivatives” (Hoffmann-La Roche Inc., priority 2003, dated 2008)
# Read-outs that look alike come from different tables or passages of the source.
# What was measured:
# [1] = target: T1, Human Liver Microsomal 2,3-oxidosqualene-lanosterol Cyclase (OSC) (Homo sapiens, UniProt P48449); experiment: Inhibition of human liver microsomal 2,3-oxidosqualene-lanosterol cyclase (OSC); format: biochemical; conditions: read-out: percentage OSC inhibition against controls
# T1 construct: Liver microsomes from a healthy volunteer were prepared in sodium phosphate buffer (pH 7.4); from tissue; host or cells: human liver microsomes (healthy volunteer)
# T1 sequence (P48449 1-732): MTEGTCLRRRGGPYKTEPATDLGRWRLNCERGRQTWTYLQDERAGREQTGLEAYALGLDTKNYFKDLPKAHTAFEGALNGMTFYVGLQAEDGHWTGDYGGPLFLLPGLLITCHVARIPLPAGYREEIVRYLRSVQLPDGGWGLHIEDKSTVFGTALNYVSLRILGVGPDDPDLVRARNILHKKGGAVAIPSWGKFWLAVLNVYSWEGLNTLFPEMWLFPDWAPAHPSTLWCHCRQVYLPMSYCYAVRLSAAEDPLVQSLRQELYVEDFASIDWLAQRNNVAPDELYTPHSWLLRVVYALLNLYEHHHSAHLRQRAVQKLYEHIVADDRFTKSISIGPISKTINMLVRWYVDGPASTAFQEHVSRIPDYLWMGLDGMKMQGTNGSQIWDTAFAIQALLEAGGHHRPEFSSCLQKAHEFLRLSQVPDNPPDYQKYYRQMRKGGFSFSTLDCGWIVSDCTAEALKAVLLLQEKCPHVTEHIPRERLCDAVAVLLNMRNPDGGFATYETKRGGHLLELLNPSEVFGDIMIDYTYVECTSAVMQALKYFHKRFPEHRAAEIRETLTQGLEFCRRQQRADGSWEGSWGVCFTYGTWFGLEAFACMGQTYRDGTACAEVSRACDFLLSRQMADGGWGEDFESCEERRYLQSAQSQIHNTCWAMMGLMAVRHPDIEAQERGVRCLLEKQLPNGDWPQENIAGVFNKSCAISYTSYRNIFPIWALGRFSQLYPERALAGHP
# Method: Inhibition of Human Liver Microsomal 2,3-oxidosqualene-lanosterol Cyclase (OSC)
# Liver microsomes from a healthy volunteer were prepared in sodium phosphate buffer (pH 7.4). The OSC activity was measured in the same buffer, which also contained 1 mM EDTA and 1 mM dithiothreitol. The microsomes were diluted to 0.8 mg/ml protein in cold phosphate buffer. Dry [^14C]R,S-monooxidosqualene (MOS, 12.8 mCi/mmol) was diluted to 20 nCi/μl with ethanol and mixed with phosphate buffer-1% BSA (bovine serum albumin). A stock solution of 1 mM test substance in DMSO was diluted to the desired concentration with phosphate buffer-1% BSA. 40 μl of microsomes were mixed with 20 μl of the solution of the test substance and the reaction was subsequently started with 20 μl of the [^14C]R,S-MOS solution. The final conditions were 0.4 mg/ml of microsomal proteins and […] of [^14C]R,S-MOS in phosphate buffer, pH 7.4, containing 0.5% albumin, DMSO<0.1% and ethanol<2%, in a total volume of 80 μl.
# After 1 hour at 37° C. the reaction was stopped by the addition of 0.6 ml of 10% KOH-methanol, 0.7ml of water and 0.1 ml of hexane:ether (1:1, v/v) which contained 25 μg of non-radioactive MOS and 25 μg of lanosterol as carriers. After shaking, 1 ml of hexane:ether (1:1, v/v) was added to each test tube, these were again shaken and then centrifuged. The upper phase was transferred into a glass test tube, the lower phase was again extracted with hexane:ether and combined with the first extract. The entire extract was evaporated to dryness with nitrogen, the residue was suspended in 50 μl of hexane:ether and applied to a silica gel plate. Chromatographic separation was effected in hexane:ether (1:1, v/v) as the eluent. The Rf values for the MOS substrate and the lanosterol product were 0.91 and, respectively, 0.54. After drying, radioactive MOS and lanosterol were observed on the silica gel plate. The ratio of MOS to lanosterol was determined from the radioactive bands in order to determine the yield of the reaction and OSC inhibition.
# The test was carried out on the one hand with a constant test substance concentration of 100 nM and the percentage OSC inhibition against controls was calculated.
# In addition, the test was carried out with different test substance concentrations and subsequently the IC50 value was calculated, i.e. the concentration required to reduce the conversion of MOS into lanosterol to 50% of the control value.
# [2] = constant test substance concentration of 100 nM, human liver microsomes, [14C]R,S-MOS, 1 hour at 37° C.
"inhibition at 0.1 µM [1, 2]",Compound,also measured
61%,"CN(C)CCN(C)C(=O)CCO[C@H]1CC[C@H](N(C)S(=O)(=O)c2ccc(C(F)(F)F)cc2)CC1 [Example 1.6, trans-N-(2-dimethylamino-ethyl)-N-methyl-3-{4-[methyl-(4-trifluoromethyl-benzenesulfonyl)-amino]-cyclohexyloxy}-propionamide]",
,"CN(C)CCN(C)C(=O)[C@H]1CC[C@H](N(C)S(=O)(=O)c2ccc(C(F)(F)F)cc2)CC1 [Example 4.4, trans-4-[methyl-(4-trifluoromethyl-benzenesulfonyl)-amino]-cyclohexanecarboxylic acid (2-dimethylamino-ethyl)-methyl-amide]",melting point: 83 °C
,"CN(C)CCN(C)C(=O)[C@H]1CC[C@H](CN(C)C(=O)Oc2ccc(Cl)cc2)CC1 [Example 5.4, trans-{4-[(2-dimethylamino-ethyl)-methyl-carbamoyl]-cyclohexylmethyl}-methyl-carbamic acid 4-chloro-phenyl ester]",inhibition at 0.1 µM [1]: 51%
65%,"CCN(CCO)CCN(C)C(=O)[C@H]1CC[C@H](CCN(C)c2ncc(Br)cn2)CC1 [Example 15.4, trans-4-{2-[(5-bromo-pyrimidin-2-yl)-methyl-amino]-ethyl}-cyclohexanecarboxylic acid {2-[ethyl-(2-hydroxy-ethyl)-amino]-ethyl}-methyl-amide]",
56%,"CN(C)CCN(C)C(=O)CC[C@H]1CC[C@H](CN(C)S(=O)(=O)c2ccc(C(F)(F)F)cc2)CC1 [Example 22.6, trans-N-(2-dimethylamino-ethyl)-N-methyl-3-(4-{[methyl-(4-trifluoromethyl-benzenesulfonyl)-amino]-methyl}-cyclohexyl)-propionamide]",
